Source: patent US8946474B2, “Polymorphic form of a calcimimetic compound” (LEO Pharma A/S, priority 2010, dated 2015)
Values after ≈ are worked out from the molar mass of the structure shown. Values joined by “and” are separate entries in the source; they are usually repeats but may differ in a detail not shown here. Equal values may be shown once.

Experiments:
Type in all cases: physicochemical
[1] = Stress stability test for solid state transformation; settings: 60° C., 60° C./75% relative humidity and 80° C./75% relative humidity; 4 weeks
Protocol: Polymorph Form C, Form X and mixtures of the two polymorphic forms C+X have all been tested at different conditions of temperature and relative humidity for signs of solid state transformation. The stress stability test was carried out at three sets of conditions: 60° C., 60° C./75% relative humidity and 80° C./75% relative humidity, and samples were analyzed after 1, 2 and 4 weeks, i.e. after 7, 14 and 28 days.
One 1.8 ml amber screw top vial (27267-U, Supelco) containing between 50 and 100 mg {4-[(1R,3S)-3-((R)-1-Naphthalen-1-yl-ethylamino)-cyclopentyl]-phenoxy}-acetic acid was tested per individual set of conditions. The vials to be tested at 60° C. were closed with a PTFE lined black polypropylene solid cap (27416, Supelco) and placed in a thermostated heating cabinet. The vials to be tested at 60° C./75% relative humidity and 80° C./75% relative humidity were placed uncapped in a desiccator containing a saturated NaCl solution. The desiccator was subsequently placed in a thermostatted heating cabinet.
The samples were analyzed at 1, 2 and 4 weeks for • 1. Visual appearance • 2. HPLC assay and impurities • 3. Polymorph characterization

[2] = Aqueous solubility as a function of pH; settings: for Solubility / solubility at 24 h: room temperature (25° C.), shaken 24 hours; for solubility at 24 h: 25 °C, thermodynamic from solid
Protocol: In addition to the characterizing analyses by XRPD, XRC, DSC, ATR-FTIR and SS NMR discussed hereinabove, the solubility of {4-[(1R,3S)-3-((R)-1-Naphthalen-1-yl-ethylamino)-cyclopentyl]-phenoxy}-acetic acid Form C and X has been determined as function of pH and in MeOH.
The aqueous solubility of Form C and Form X was determined as a function of pH at 25° C. in 0.1N HCl (pH 1.0) and in Sorensen phosphate buffers at pH 2.0, 4.0, 6.0 and 8.0. For each pH value two individual determinations were made. Form C or Form X was weighed out (11 mg for pH 1, 4 mg for pH 2-8) in scintillation vials and 4 ml 0.1N HCl or buffer was added. The vials were shaken for 24 hours at 25° C. After 24 hours it was checked that the vial still contained undissolved material. The suspensions were filtered through a 0.45 μm filter, which was first saturated with app. 0.5 ml filtrate. The resulting filtrates were diluted and analyzed by HPLC vs. a standard curve.

[3] = Thermo gravimetric analysis (TGA); settings: TGA trail of Graph 4b (Form X), ±2° C.
Protocol: TGA experiments were conducted using a Perkin Elmer Pyris 1 TGA instrument. About 10-20 mg of sample was loaded into a ceramic pan for the measurements. The sample temperature was ramped from 25 to 350° C. at 10° C./min. Nitrogen was used as the purge gas at a flow rate of 40 mL/min.

4 week stress stability test without any solid state transformation [1] | Solubility ([2]; pH 1.0 (0.1N HCl)) [µg/mL] | Solubility ([2]; pH 2.0 (Sorensen phosphate buffer)) | Solubility ([2]; pH 4.0 (Sorensen phosphate buffer)) | Solubility ([2]; pH 6.0 (Sorensen phosphate buffer)) [µg/mL] | Solubility ([2]; pH 8.0 (Sorensen phosphate buffer)) [µg/mL] | solubility at 24 h ([2]; 0.1N HCl, pH 1, simulated gastric fluid, pH 1.0 (0.1N HCl)) [µg/mL] | solubility at 24 h ([2]; Sorensen phosphate buffer, pH 2, aqueous buffer, pH 2.0 (Sorensen phosphate buffer)) [µg/mL] | solubility at 24 h ([2]; Sorensen phosphate buffer, pH 4, aqueous buffer, pH 4.0 (Sorensen phosphate buffer)) [µg/mL] | solubility at 24 h ([2]; Sorensen phosphate buffer, pH 6, aqueous buffer, pH 6.0 (Sorensen phosphate buffer)) [µg/mL] | solubility at 24 h ([2]; Sorensen phosphate buffer, pH 8, aqueous buffer, pH 8.0 (Sorensen phosphate buffer)) [µg/mL] | solubility compared to Form C ([2]; room temperature) | stable towards degradation at temperatures below [3] | SMILES
passed | 1225 (≈ 3150 µM) | 394 µg/mL and 329 µg/mL | 52 µg/mL and 53 µg/mL | 43 (≈ 110 µM) | 55 (≈ 141 µM) |  |  |  |  |  |  |  | C[C@@H](N[C@H]1CC[C@@H](c2ccc(OCC(=O)O)cc2)C1)c1cccc2ccccc12 [Form C, {4-[(1R,3S)-3-((R)-1-Naphthalen-1-yl-ethylamino)-cyclopentyl]-phenoxy}-acetic acid]
passed |  |  |  |  |  | 1240 (≈ 3190 µM) | 551 (≈ 1410 µM) | 86 (≈ 221 µM) | 78 (≈ 200 µM) | 80 (≈ 205 µM) | higher |  | C[C@@H](N[C@H]1CC[C@@H](c2ccc(OCC(=O)O)cc2)C1)c1cccc2ccccc12 [Form X, {4-[(1R,3S)-3-((R)-1-Naphthalen-1-yl-ethylamino)-cyclopentyl]-phenoxy}-acetic acid]
passed |  |  |  |  |  |  |  |  |  |  |  | below 255 °C | C[C@@H](N[C@H]1CC[C@@H](c2ccc(OCC(=O)O)cc2)C1)c1cccc2ccccc12 [{4-[(1R,3S)-3-((R)-1-Naphthalen-1-yl-ethylamino)-cyclopentyl]-phenoxy}-acetic acid]
